The target in one experiment is T1, GR (Homo sapiens, UniProt P04150).
T1 construct: expressed in transfected cells; host or cells: CHO cells carrying GR and an MMTV-luciferase reporter
T1 sequence (P04150 1-777): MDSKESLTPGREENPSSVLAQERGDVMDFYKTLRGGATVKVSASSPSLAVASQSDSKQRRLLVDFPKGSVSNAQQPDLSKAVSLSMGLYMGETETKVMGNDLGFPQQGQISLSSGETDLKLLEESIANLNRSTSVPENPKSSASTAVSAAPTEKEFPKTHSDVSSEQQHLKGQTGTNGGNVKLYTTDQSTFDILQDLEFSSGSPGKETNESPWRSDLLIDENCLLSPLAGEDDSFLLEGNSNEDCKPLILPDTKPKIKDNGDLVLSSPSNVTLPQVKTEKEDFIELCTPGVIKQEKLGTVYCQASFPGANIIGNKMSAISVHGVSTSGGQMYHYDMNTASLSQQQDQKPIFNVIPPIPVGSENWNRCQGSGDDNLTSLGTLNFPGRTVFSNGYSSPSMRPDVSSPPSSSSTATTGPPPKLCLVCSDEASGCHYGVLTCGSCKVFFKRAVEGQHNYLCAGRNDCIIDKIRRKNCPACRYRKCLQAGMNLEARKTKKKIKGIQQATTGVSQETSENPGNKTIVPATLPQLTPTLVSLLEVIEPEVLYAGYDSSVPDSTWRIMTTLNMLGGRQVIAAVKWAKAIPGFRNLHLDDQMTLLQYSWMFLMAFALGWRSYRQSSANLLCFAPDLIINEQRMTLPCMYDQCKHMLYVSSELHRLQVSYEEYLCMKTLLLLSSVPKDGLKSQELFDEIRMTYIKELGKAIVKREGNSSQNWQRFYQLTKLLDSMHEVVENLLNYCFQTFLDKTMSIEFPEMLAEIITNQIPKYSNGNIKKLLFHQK
In words: GR luciferase antagonist assay (CHO/GR/MMTV Luciferase cells). It counts as cell-based. The note with it: 10 nM Dexamethasone final, 16-18 h. Here is the method: Example A: […] GR Luciferase Assay Cell Line: CHO/GR/MMTV Luciferase Culture Media: DMEM (with phenol red)+10% FBS Assay Media: DMEM (without phenol red)+10% CSS A 1×10 cm plate of cells was split into 2×15 cm plates in Assay Media (CSS). After 4 days, the cells in the Assay Media were collected and counted. Antagonist Assay: 1.5×10^4 cells per well were plated in a 384-well white walled TC plate in 20 ul of Assay Media containing 12.5 nM Dexamethasone (final concentration=10 nM). The plates were covered with film to avoid evaporation and placed in a TC incubator. Media/drug dilutions were prepared in Assay Media in 96-well sterile plates. 100 ul of Assay Media was distributed in aliquots into 96-well plates with an 8-Channel pipette (20-200 ul). 0.5 ul of 1000× concentration of compounds were added to the plates with 8-Channel pipette (0.5-10 ul). The plates were shaken for 15 seconds to mix. The film was removed from the 384-well plates with assay cells. 5 ul of media/drug dilutions were added to appropriate wells. The plates were covered with film to avoid evaporation and placed in a TC incubator overnight. After 16-18 h in the incubator, the plates were removed and sat at room temperature for 10 minutes to equilibrate. The Reagent Dispenser was setup to distribute 25 ul aliquots of OneGlo Luciferase Reagent (at room temperature) to each well of the 384-well plate using standard cassette. After OneGlo was added to the plates, the plates were shaken briefly, then incubated in the dark at room temperature for about 3 minutes. The plates were read using a Tecan or Promega luminometer. The ability of the compounds disclosed herein to inhibit GR activity was quantified and the respective IC50 value was determined. Table 3 provides the cellular IC50 values of various substituted steroidal compounds disclosed herein.

A further experiment concerns AR. In words: AR agonism assay in LNAR reporter cell line. The class given is cell-based. The note with it: LNAR cells (overexpressed AR, 4XARE-Luc), 10% CSS, 18-24 hrs; Mifepristone maximum response set to 1. Here is the method: Example B: In Vitro AR Agonism Assay
The AR agonism assay was done in the LNAR reporter cell line which has overexpressed AR and 4XARE-Luc genes. This cell line is sensitive to even minor partial AR agonism activity in hormone-deprived media (CSS). The assays were done in RPMI (without phenol red)+10% CSS using 6000 LNAR cells/well in 384-well plates and compounds were incubated with cells in […] incubator for 18-24 hrs. OneGlo reagent (25 uL/well) was added and plates were read with luminometer within 3 minutes.
To gauge the AR partial agonism activity, Mifepristone is included as a standard in the assay. AR agonism assay results are quantified by determining the ratio of the maximum response of individual compounds to the maximum response of Mifepristone (arbitrarily set to 1). Values of Table 4 are reported as Relative Maximum Response to Mifepristone. This general trend of AR agonism was shown for the class of compounds described herein.

Broadly, the IC50 is the concentration that gives 50% inhibition. A higher IC50 goes with weaker potency. As to `CC(C)Nc1ccc([C@H]2C[C@@]3(C)[C@@H](CC[C@@]3(O)C#CC(C)(C)C)[C@@H]3CCC4=CC(=O)CC[C@@H]4[C@H]32)cc1F` [Compound 14, (8R,9S,10R,11S,13S,14S,17S)-17-(3,3-dimethylbut-1-yn-1-yl)-11-(3-fluoro-4-(isopropylamino)phenyl)-17-hydroxy-13-methyl-1,2,6,7,8,9,10,11,12,13,14,15,16,17-tetradecahydro-3H-cyclopenta[a]phenanthren-3-one], the half-inhibitory concentration (IC50) on GR was greater than 100 nM. Further, the “Relative Maximum Response to Mifepristone” value (shortened to “Relative Maximum Response”) in the experiment with AR is “A (A: ≤ 0.4)”.

For the molecule `CC(C)N(C)c1ccc([C@H]2C[C@@]3(C)[C@@H](CC[C@@]3(O)C#CC3CC3)[C@@H]3CCC4=CC(=O)CC[C@]4(C)[C@H]32)cc1` [Compound 21, (8S,9R,10R,11S,13S,14S,17S)-17-(Cyclopropylethynyl)-17-hydroxy-11-(4-(isopropyl(methyl)amino)phenyl)-10,13-dimethyl-1,2,6,7,8,9,10,11,12,13,14,15,16,17-tetradecahydro-3H-cyclopenta[a]phenanthren-3-one], the concentration for half-maximal inhibition (IC50) at GR is no more than 100 nM. In the experiment with AR, the “Relative Maximum Response” value is reported as “A (A: ≤ 0.4)”.

In turn, `CC(C)N(C)c1ccc([C@H]2C[C@@]3(C)[C@@H](CC[C@@]3(O)C#CC(C)(C)C)[C@@H]3CCC4=CC(=O)CC[C@@H]4[C@H]32)cc1` [Compound 2, (8R,9S,10R,11S,13S,14S,17S)-17-(3,3-Dimethylbut-1-yn-1-yl)-17-hydroxy-11-(4-(isopropyl(methyl)amino)phenyl)-13-methyl-1,2,6,7,8,9,10,11,12,13,14,15,16,17-tetradecahydro-3H-cyclopenta[a]phenanthren-3-one] showed a 50% inhibitory concentration (IC50) on GR of no more than 100 nM. In addition, the “Relative Maximum Response” value in the experiment with AR is recorded as “A (A: ≤ 0.4)”.

In the case of `CC(C)Nc1ccc([C@H]2C[C@@]3(C)[C@@H](CC[C@@]3(O)C#CC(C)(C)C)[C@@H]3CCC4=CC(=O)CC[C@@H]4[C@H]32)cc1` [Compound 10, (8R,9S,10R,11S,13S,14S,17S)-17-(3,3-Dimethylbut-1-yn-1-yl)-17-hydroxy-11-(4-(isopropylamino)phenyl)-13-methyl-1,2,6,7,8,9,10,11,12,13,14,15,16,17-tetradecahydro-3H-cyclopenta[a]phenanthren-3-one], the IC50 at GR is no more than 100 nM. Moreover, the “Relative Maximum Response” value in the experiment with AR was “A (A: ≤ 0.4)”.

Take `CC(C)(C)C#C[C@]1(O)CC[C@H]2[C@@H]3CCC4=CC(=O)CC[C@@H]4[C@H]3[C@@H](c3ccc(N4CCCC4)cc3)C[C@@]21C` [Compound 1, (8R,9S,10R,11S,13S,14S,17S)-17-(3,3-Dimethylbut-1-yn-1-yl)-17-hydroxy-13-methyl-11-(4-(pyrrolidin-1-yl)phenyl)-1,2,6,7,8,9,10,11,12,13,14,15,16,17-tetradecahydro-3H-cyclopenta[a]phenanthren-3-one]: on GR, the half-maximal inhibitory concentration (IC50) is no more than 100 nM. Further, the “Relative Maximum Response” value in the experiment with AR was “A (A: ≤ 0.4)”.

The values above are taken from patent US10836789B2, “Inhibitors of glucocorticoid receptor” (ORIC Pharmaceuticals, Inc., priority 2016, dated 2020).
